Converted amounts (≈) assume the structure as drawn. Where two headings read alike, the source gives them in different places.
How the values were obtained:
Assay type in all cases: cell-based
[1] = system: hepatitis B virus (HBV) DNA; test: Inhibition of HBV DNA in 2.2.15 cell culture (dot blot hybridization, autoradiography); settings: concentration not given
Procedure: (§1) Anti-hepatitis (HBV) DNA virus in vitro of the above partial compounds is tested. human hepatoma carcinoma cells (Hep G2) in the 2.2.15 cell line are transfected by DNA cloning of hepatitis B virus (HBV), the inhibitory effect on cell toxicity and HBV DNA secretion are studied. Half inhibition concentration (IC50) and half toxicity concentration (TC50) of samples are measured, the inhibition ratio to HBV DNA in the 2.2.15 cell culture are obtained respectively.
Virus strains: human hepatoma carcinoma cells (Hep G2) in 2.2.15 cell line are transfected by DNA cloning of hepatitis B virus (HBV). […]
Test method: The sample is prepared for a 20 mg/ml mother liquor, and is further prepared for a required concentration by using a 2.2.15 cell culture medium. […] Mean cytopathic extent and inhibition ratio of medical solutions for each concentration are calculated. Half toxicity concentration (TC50) and its maximum of non toxicity concentration (TC0) are respectively calculated by the method of Reed-Muench. According to the method of molecular cloning experimental technology, firstly the HBV DNA is extracted from 2.2.15 cells of medical solution of each concentration group and cell control groups, and then a dot blot hybridization and autoradiography of each sample are measured. After measuring IOD value or OD value of every hybridization dot, the inhibition ratio is calculated.

[2] = system: respiratory syncytial virus (RSV), Long strain; test: Inhibitory effect on anti-RSV in vitro (CPE in Hep-2 cells, 72 h, Reed-Muench); settings: human respiratory syncytial virus, read-out: IC50 (half inhibition concentration, RSV)
Procedure: Anti-RSV in vitro of the above partial compounds is tested. With Hep-2 cell (human laryngocarcinoma cell) as viral host, Hep-2 cytopathic extent caused by inhibiting RSV is measured and observed for 72 h. Half inhibition concentration (IC50) of samples with respect to respiratory syncytial virus (RSV), its maximum of non toxicity concentration (TC0) and half toxicity concentration (TC50) of samples with respect to Hep-2 cell are respectively calculated by methods of Reed-Muench.
Virus strains: RSV, Long strain
Sample treatment: before using, sample is prepared for a suitable concentration by being dissolved in DMSO, and is diluted to 3 times with a culture medium to form eight dilutions.
Positive control drug: ribavirin (RBV)
(§2) Test method: After Hep-2 cell is cultured in 96-well plate for 24 h, it is infected respiratory syncytial virus (RSV) (200TCID50 infective dose) and absorbed for 4 h to get a viral liquid. Then the viral liquid is discarded. The sample is added thereto according to the above eight dilutions, in the meantime cell control wells of positive drugs, normal cell control wells and viral control wells are set. The cytopathic extent (CPE) is observed for 72 h. Half inhibition concentration (IC50) of samples with respect to respiratory syncytial virus (RSV), its maximum of no toxicity concentration (TC0) and half toxicity concentration (TC50) of samples with respect to Hep-2 cells are respectively calculated by method of Reed-Muench.

[3] = system: Hep-2 cell (human laryngocarcinoma cell); test: Toxicity of samples with respect to Hep-2 cell (CPE, Reed-Muench); settings: 72 h
Procedure: as §2, with “Anti-RSV in vitro of the above partial compounds is tested. With Hep-2 cell (human laryngocarcinoma cell) as viral host, Hep-2 cytopathic extent caused by inhibiting RSV is measured and observed for 72 h. Half inhibition concentration (IC50) of samples with respect to respiratory syncytial virus (RSV), its maximum of non toxicity concentration (TC0) and half toxicity concentration (TC50) of samples with respect to Hep-2 cell are respectively calculated by methods of Reed-Muench. Sample treatment: before using, sample is prepared for a suitable concentration by being dissolved in DMSO, and is diluted to 3 times with a culture medium to form eight dilutions. Test” for “Test”

HIV-1 IIIB virus strain = test: Inhibitory effect on HIV-1 IIIB in MT-4 cells (P24 antigen ELISA of cell culture supernatant); settings: Human immunodeficiency virus 1, IIIB, MT4, 96 h, read-out: IC50 (half inhibition concentration, HIV-1 IIIB)
Procedure: (§3) Anti-HIV-1 IIIB/H9 in vitro of the above partial compounds is tested. Half inhibition concentration (IC50) of samples and half toxicity concentration (TC50) of samples are respectively measured after culturing MT-4 cells, wherein the cell toxicity is measured by the method of CPE, and the inhibitory effects on HIV-1 IIIB of compounds are measured by method of measuring P24 antigen of cell culture supernatant.
Virus strains: HIV-1 IIIB virus strain
Sample treatment: before using, the sample is prepared for a suitable concentration by being dissolved in DMSO and then is further prepared for a cell culture medium.
Positive control drug: Zidovudine (AZT)
HIV-1 P24 antigen detection kit: Use products of BioMerieux Corporation in Holland.
HIV-1 P24 antigen is measured by the method of ELISA. After counting the MT-4 cells, the cells are infected in the virus dose of 100TCID50 and absorbed for 1.5 h in the incubator of 37° C., 5% CO2 and a saturated humidity. The cells are inoculated in a 96-well plate at the density of 2×10^5 cells/ml. After adding a diluted drug 100 ul/well, the culture of the plate is cultured at the incubator of 37° C., 5% CO2 and a saturated humidity for 4 days (96 h). Cell supernatant is taken out and diluted in the ratio of 1:3000. HIV-1 P24 titer is measured according to the test steps provided by HIV-1 P24 antigen kit. Compared adding drug groups with viral control groups, half inhibition concentration (IC50) of samples and half toxicity concentration (TC50) of samples are respectively calculated

T-lymphocyte MT-4 = test: Cell toxicity in MT-4 cells by method of CPE (96 h)
Procedure: as §3
Test method: The toxicity of drug in cell (TC50 and TC0) is measured by method of CPE. 100 μl cell is inoculated in 96-well plate at a density of 2×10^5 cells/ml. In the meantime, the medical solution 100 μl of 8 kinds of concentration of samples or positive drug zidovudine which are respectively diluted to 3 times are respectively added thereto, each of concentration is placed in 3 wells which are set to a cell control group. The above plates is cultured at the incubator of 37° C., 5% CO2 and a saturated humidity. CPE Cells are observed at the fourth day (96 h) after adding drug, the cytopathic situation is recorded and TC50 and TC0 are calculated.

[4] = system: human hepatoma carcinoma cells (Hep G2) 2.2.15 cell line; test: Cell toxicity in 2.2.15 cells (cytopathic cells observed for 8 days, Reed-Muench)
Procedure: as §1
Virus strains: human hepatoma carcinoma cells (Hep G2) in 2.2.15 cell line are transfected by DNA cloning of hepatitis B virus (HBV).
Sample treatment: the sample is prepared for a suitable concentration by being dissolved in DMSO and preserved at 4° C. before using. When using, the required concentration is prepared by using a 2.2.15 cell culture medium.
Test method: The sample is prepared for a 20 mg/ml mother liquor, and is further prepared for a required concentration by using a 2.2.15 cell culture medium. Then the above solution is diluted to 5 times from 200 μg/ml with the culture medium to form eight kinds of concentrations. The above solution is added to a 96-well cell plate, each of concentration is placed in 3 wells, and the medical solution with the same concentration is changed every 4 days. Cell control group without drug is set to observe cytopathic cell as a target, the cytopathic cell is observed under a microscope for 8 days, wherein full destruction is about 4; 75% of cytopathic cells are about 3; 50% of cytopathic cells are about 2; 25% of cytopathic cells are about 1; no cytopathic cells is about 0. Mean cytopathic extent and inhibition ratio of medical solutions for each concentration are calculated. Half toxicity concentration (TC50) and its maximum of non toxicity concentration (TC0) are respectively calculated by the method of Reed-Muench. According to the method of molecular cloning experimental technology, firstly the HBV DNA is extracted from 2.2.15 cells of medical solution of each concentration group and cell control groups, and then a dot blot hybridization and autoradiography of each sample are measured. After measuring IOD value or OD value of every hybridization dot, the inhibition ratio is calculated.

[5] = RSV Long strain in Hep-2 cell, CPE, 72 h

| Compound | HBV DNA Inhibition ratio (%) [1] | IC50 [2, 5] | TC0 (maximum of non toxicity concentration) [3] | TC50 (half toxicity concentration) [3] | IC50 (HIV-1 IIIB virus strain) | TC50 (half toxicity concentration) (T-lymphocyte MT-4; human) | Cell toxicity TC0 [4] | Cell toxicity TC50 [4] | IC50 ([2]; HEp-2, 72 h) | TC50 (half toxicity concentration) (T-lymphocyte MT-4; MT-4 cells, CPE) |
| --- | --- | --- | --- | --- | --- | --- | --- | --- | --- | --- |
| Nc1ccn([C@@H]2CS[C@H](CO)O2)c(=O)n1 [3TC, lamivudine, reference compound] | 40.8~49.39% |  |  |  |  |  |  |  |  |  |
| CNC(=O)[C@]1(O)C[C@@H](OC(=O)/C=C/c2ccc(O)c(O)c2)[C@@H](OC(=O)/C=C/c2ccc(O)c(O)c2)[C@H](OC(=O)/C=C/c2ccc(O)c(O)c2)C1 [3-7] | 41.71% | > 64.2 µg/mL | 37.04 µg/mL | 64.15 µg/mL (≈ 92.8 µM) | 1.02 µg/mL (≈ 1.47 µM) | 32.08 µg/mL (≈ 46.4 µM) | >200 µg/mL | >200 µg/mL |  |  |
| O=C(/C=C/c1ccc(O)c(O)c1)O[C@@H]1C[C@](OC(=O)/C=C/c2ccc(O)c(O)c2)(C(=O)N2CCCC2)C[C@@H](O)[C@H]1O [2-3] |  | > 12.3 µg/mL | 4.12 µg/mL | 12.35 µg/mL (≈ 21.7 µM) |  |  | 0.32 µg/mL | 3.58 µg/mL |  |  |
| O=C(/C=C/c1ccc(O)c(O)c1)O[C@@H]1C[C@](O)(C(=O)NC2CC2)C[C@@H](OC(=O)/C=C/c2ccc(O)c(O)c2)[C@H]1O [1-1] |  | > 111 µg/mL | 37.04 µg/mL | 111.11 µg/mL (≈ 200 µM) |  |  | 1.6 µg/mL | 27.59 µg/mL |  |  |
| NC(=O)c1ncn([C@@H]2O[C@H](CO)[C@@H](O)[C@H]2O)n1 [RBV, Ribavirin, reference compound] |  |  |  |  |  |  |  |  | 1.37 µg/mL (≈ 5.61 µM) |  |
| CNC(=O)[C@]1(OC(=O)/C=C/c2ccc(O)c(O)c2)C[C@@H](O)[C@@H](O)[C@H](OC(=O)/C=C/c2ccc(O)c(O)c2)C1 [3-3] |  | > 111 µg/mL | 37.04 µg/mL | 111.11 µg/mL (≈ 210 µM) |  |  | 0.32 µg/mL | 3.58 µg/mL |  |  |
| CNC(=O)[C@]1(O)C[C@@H](OC(=O)/C=C/c2ccc(O)c(O)c2)[C@@H](O)[C@H](OC(=O)/C=C/c2ccc(O)c(O)c2)C1 [3-1] |  | 16.2 µg/mL (≈ 30.7 µM) | 37.04 µg/mL | 64.15 µg/mL (≈ 121 µM) | 1.83 µg/mL (≈ 3.46 µM) | 32.08 µg/mL (≈ 60.6 µM) | 1.6 µg/mL | 27.59 µg/mL |  |  |
| Cc1cn([C@H]2C[C@H](N=[N+]=[N-])[C@@H](CO)O2)c(=O)[nH]c1=O [AZT, zidovudine, reference compound] |  |  |  |  | 0.0042 µg/mL (≈ 0.0157 µM) |  |  |  |  | 20.00 µg/mL (≈ 74.8 µM) |
| CNC(=O)[C@]1(O)C[C@@H](O)[C@@H](O)[C@H](OC(=O)/C=C/c2ccc(O)c(O)c2)C1 [3-5] |  | 7.13 µg/mL (≈ 19.4 µM) | 12.35 µg/mL | 37.04 µg/mL (≈ 101 µM) |  |  | 8 µg/mL | 89.44 µg/mL |  |  |

Reference: patent publication US8722725B2, “Caffeoylquinic acid derivatives containing nitrogen, and preparation method, pharmaceutical composition and usage thereof” (Zhejiang Medicine Co., Ltd. Xinchang Pharmaceutical Factory, priority 2007, dated 2014)
